Data from PMC8118497, “Facile synthesis of PEI-based crystalline templated mesoporous silica with molecular chirality for improved oral delivery of the poorly water-soluble drug” (Drug Delivery, 2021).
Read-outs that look alike come from different tables or passages of the source.

How the values were obtained:
[1] = In vitro release of NMP, USP II paddle method in 0.5% SDS solution; assay type: physicochemical; details: 250 mL, 37 °C, 50 rpm, 10 mg NMP
Description: The in vitro release behavior of samples was assessed by a USP II paddle method on a dissolution apparatus (ZRS-8G, Huanghai Medicament Test Instrument, China). Prewarmed medium of 0.5% (w/v) sodium dodecyl sulfate (SDS) solution (250 mL, 37 °C) was added to the dissolution cup with a stirrer rotation speed of 50 rpm. 10 mg NMP, NMP/MCM41 and NMP/PEIs@TA-CMSs samples containing 10 mg of NMP were suspended in the release medium. 5 mL of aliquots were collected and replaced by an equal volume of fresh isothermal supplement at predetermined time intervals, After filtering through a 0.22 μm membrane filter, the drug release amounts were tested by UV spectroscopy (UV-1750, Shimadzu, Japan) at 238 nm. All in vitro release studies were repeated three times.

[2] = In vivo pharmacokinetics after oral administration; parameters: species or system Sprague-Dawley rats; details: rats
Description: Twelve male Sprague-Dawley rats (SD rats, 180–220 g body weight) were randomly divided into three groups (n = 4): NMP group, NMP/PEIs@TA-CMS group and NMP/MCM41 group. Prior to the experiment, animals were fasted overnight with free access to water. The animals were orally administered the water suspensions of NMP, NMP/PEIs@TA-CMS and NMP/MCM4 with a drug dose of 2.5 mg. At appropriate sampling times, aliquot blood sample (about 0.6 mL) was withdrawn via the retro-orbital venous sinus, centrifuged to separate the plasma, and stored at −20 °C.
In the pretreatment procedure, 20 μL of internal standard solution (nitrendipine, 20 μg/mL) was added into 200 μL plasma sample and vortexed for 1 min. Afterwards, 100 μL NaOH (0.01 mol/L) was uniformly mixed with the system and vortexed for 1 min. The drug was extracted by 2.5 mL diethyl ether, vortexed for 5 min, and centrifugated for 12 min to separate the organic layer (2 mL). The organic layer (2 mL) was then transferred to a new tube and evaporated to dryness under a gentle stream of N2. After reconstituting with 100 μL mobile phase, the 20 μL sample was analyzed by high performance liquid chromatography (HPLC) method. The separation procedure was performed on a Kromasil ODS-2C18 column (Thermo ODS-2 Hypersil, 250 mm × 4.6 mm, […], UK) equipped with a JanuSep C18 pre-column (Liaoning, China), and the column temperature was kept at 25 °C. The UV detector was set at 240 nm. The mixture of methanol, acetonitrile and water (3:4:3, v/v/v) was selected as the optimized mobile phase with a flow rate of 1 mL/min. The NMP content was calculated according to internal standard method, and the main pharmacokinetic parameters were obtained using the software of DAS 2.0.

[3] = system: cerebral anoxia of mice induced by NaNO2; test: In vivo pharmacodynamics: survival time of mice on cerebral anoxia induced by NaNO2; parameters: species or system Kunming mice; details: oral dose 0.5 mg NMP (middle dose); NaNO2 i.p. 90 min post administration
Description: The pharmacodynamics study was performed to further evaluating the effect of PEIs@TA-CMS on improving the oral adsorption of NMP. 36 SPF-grade Kunming mice (18–22 g body weight) were assigned into six groups, randomly (n = 6): Normal saline group, NMP group, NMP/PEIs@TA-CMS (low dose) group, NMP/PEIs@TA-CMS (middle dose) group, NMP/PEIs@TA-CMS (high dose) group and NMP/MCM41 group. Before dosing, animals were fasted overnight with free access to water. Animals in the Normal Saline group were received oral treatment of 0.5 mL normal saline, and were considered as negative control. While for NMP group which severed as positive control, 0.5 mg pure NMP was suspended in 0.5 mL normal saline and was imposed to animals. Normal saline suspensions of NMP/PEIs@TA-CMS and NMP/MCM41 containing 0.5 mg NMP were also oral administrated to mice. Meanwhile, half and twice of the dose in NMP/PEIs@TA-CMS (middle dose) group, which were respectively in doses equivalent to 0.25 mg and 1 mg NMP, were given to mice to further study the influence of dose. […] Then the clinic manifestation and survival time of mice was recorded to study the protective effect of NMP formulations on mice cerebral anoxia.

[4] = background statement, no reference given; cited from earlier work

## COCCOC(=O)C1=C(C)NC(C)=C(C(=O)OC(C)C)C1c1cccc([N+](=O)[O-])c1 (stereo not drawn) [NMP, nimodipine]
[1]
  drug release amount within 60 min: 29.24%
  drug release amount within 240 min: 41.32%
[2]; male, Sprague-Dawley, rat, plasma, drug dose 2.5 mg
  half-life: 10.9 ± 1.13 h
[2]; male, Sprague-Dawley, rat, plasma, drug dose 2.5 mg, read-out: MRT0-∞
  MRT inf: 8.84 ± 1.73 h
[2]; male, Sprague-Dawley, rat, plasma, drug dose 2.5 mg, read-out: maximum concentration (Cmax)
  Cmax: 100 ng/mL
[2]; male, Sprague-Dawley, rat, plasma, drug dose 2.5 mg, water suspension
  AUC(0-inf): 1190 ± 160 ng·h/mL
[2]; drug dose 2.5 mg
  Cmax: 100 ± 20 ng/mL
  Tmax: 0.5 ± 0 h
[2]; drug dose 2.5 mg, relative to pure NMP
  Relative bioavailability: 100%
[2]; post administration, suggests enterohepatic circulation
  time of second plasma concentration peak (double peaks): 8 h
[3]
  survival time of mice after injection of NaNO2: 14.33 min
[4]
  bioavailability: lower than 13%
